# Reference: the NIST ThermoML archive (doi:10.1021/je800246v)
# Numbers after ± are expanded uncertainties.
# Assay: activity coefficient (dimensionless); of the first substance listed, at infinite dilution; xn = mol fraction of the nth substance listed
# Settings: 101 kPa, Liquid, Chromatography, x1 = 0
activity coefficient (315.9 K),activity coefficient (325.3 K),activity coefficient (334.8 K),SMILES,activity coefficient (306.6 K)
5.03 ± 0.53,4.38 ± 0.46,3.84 ± 0.4,CC(C)CO [2-methyl-1-propanol] + CCCCn1cc[n+](C)c1.F[P-](F)(F)(F)(F)F,
4.7 ± 0.49,4.14 ± 0.44,3.78 ± 0.4,CCC(O)CC [3-pentanol] + CCCCn1cc[n+](C)c1.F[P-](F)(F)(F)(F)F,
5.59 ± 0.59,4.77 ± 0.5,4.24 ± 0.45,CCCCO [butan-1-ol] + CCCCn1cc[n+](C)c1.F[P-](F)(F)(F)(F)F,
3.02 ± 0.32,2.69 ± 0.28,2.47 ± 0.26,CCO [ethanol] + CCCCn1cc[n+](C)c1.F[P-](F)(F)(F)(F)F,
2.16 ± 0.23,1.95 ± 0.2,1.81 ± 0.19,CO [methanol] + CCCCn1cc[n+](C)c1.F[P-](F)(F)(F)(F)F,
9.71 ± 1,8.01 ± 0.84,6.47 ± 0.68,CCCCCO [pentan-1-ol] + CCCCn1cc[n+](C)c1.F[P-](F)(F)(F)(F)F,
5.66 ± 0.59,4.99 ± 0.52,4.38 ± 0.46,CCCC(C)O (stereo unspecified) [pentan-2-ol] + CCCCn1cc[n+](C)c1.F[P-](F)(F)(F)(F)F,

# The next lines start with the compound.
SMILES,activity coefficient (315.9 K),activity coefficient (325.3 K),activity coefficient (334.8 K),activity coefficient (306.6 K)
"Cc1ccccc1C [1,2-dimethylbenzene] + CCCCn1cc[n+](C)c1.F[P-](F)(F)(F)(F)F",2.37 ± 0.25,2.21 ± 0.23,2.2 ± 0.23,
"Cc1cccc(C)c1 [1,3-dimethylbenzene] + CCCCn1cc[n+](C)c1.F[P-](F)(F)(F)(F)F",2.38 ± 0.25,2.43 ± 0.26,2.36 ± 0.25,
"Cc1ccc(C)cc1 [1,4-dimethylbenzene] + CCCCn1cc[n+](C)c1.F[P-](F)(F)(F)(F)F",2.27 ± 0.24,2.24 ± 0.24,2.28 ± 0.24,
"CC(=O)CC(C)=O [2,4-pentanedione] + CCCCn1cc[n+](C)c1.F[P-](F)(F)(F)(F)F",1.15 ± 0.12,1.07 ± 0.11,1.03 ± 0.1,
CC(C)CCO [3-methylbutan-1-ol] + CCCCn1cc[n+](C)c1.F[P-](F)(F)(F)(F)F,7.71 ± 0.81,6.34 ± 0.67,5.2 ± 0.55,
CC(C)=O [acetone] + CCCC[n+]1ccc(C)cc1.F[B-](F)(F)F,1.01 ± 0.1,1.03 ± 0.1,,0.995 ± 0.1
CC(C)=O [acetone] + CCCCn1cc[n+](C)c1.F[P-](F)(F)(F)(F)F,0.707 ± 0.074,0.709 ± 0.074,0.699 ± 0.073,
CCC(C)O (stereo unspecified) [butan-2-ol] + CCCCn1cc[n+](C)c1.F[P-](F)(F)(F)(F)F,4.29 ± 0.45,3.78 ± 0.4,3.37 ± 0.35,
CCC(C)=O [butanone] + CCCC[n+]1ccc(C)cc1.F[B-](F)(F)F,1.57 ± 0.16,1.59 ± 0.17,,1.53 ± 0.16
CCC(C)=O [butanone] + CCCCn1cc[n+](C)c1.F[P-](F)(F)(F)(F)F,0.987 ± 0.1,0.99 ± 0.1,0.983 ± 0.1,
CCO [ethanol] + CCCC[n+]1ccc(C)cc1.F[B-](F)(F)F,1.62 ± 0.17,1.49 ± 0.15,,1.7 ± 0.18
CO [methanol] + CCCC[n+]1ccc(C)cc1.F[B-](F)(F)F,0.98 ± 0.1,0.907 ± 0.093,,1.01 ± 0.1
CCCO [propan-1-ol] + CCCCn1cc[n+](C)c1.F[P-](F)(F)(F)(F)F,4.01 ± 0.42,3.46 ± 0.36,3.18 ± 0.33,
CC(C)O [propan-2-ol] + CCCCn1cc[n+](C)c1.F[P-](F)(F)(F)(F)F,3.65 ± 0.38,3.16 ± 0.33,2.85 ± 0.3,
Cc1ccccc1 [toluene] + CCCCn1cc[n+](C)c1.F[P-](F)(F)(F)(F)F,1.71 ± 0.18,1.59 ± 0.17,1.71 ± 0.18,
